Patent publication US20230037453A1, “PREPARATION FOR USE AS VASORELAXANT” (Evonik Operations GmbH, priority 2020, published 2023)

What follows are compounds tested on mice mesenteric arteries (assay: Vascular reactivity: vasorelaxation of phenylephrine-precontracted mesenteric arteries (wire or pressure myograph)). Conditions: phenylephrine-precontracted mice mesenteric arteries, increasing doses 5 - 300 µg/mL.
Format: cell-based
Procedure: Second-order branches of the mesenteric arterial tree were removed from mice to perform vascular studies. […] First, an analysis of vascular reactivity curves was performed. In particular, vasoconstriction was assessed with 80 mmol/L of KCI or with increasing doses of phenylephrine (from 10^-9 M to 10^-6 M) in control conditions. Endothelium-dependent and -independent relaxations were assessed by measuring the dilatory responses of mesenteric arteries to cumulative concentrations of acetylcholine (from 10^-9 M to 10^-6 M) or nitroglycerine (from 10^-9 M to 10^-6 M) respectively, in vessels precontracted with phenylephrine at the dose necessary to obtain a similar level of precontraction in each ring (80% of initial KCI-evoked contraction). Caution was taken to avoid endothelial damage; functional integrity was reflected by the response to acetylcholine (from 10^-9 M to 10^-6 M). […]
F) Comparison of vasorelaxant effect of AvailOm®, ω 3-FA, ω 3-EE or L-Lysine. Statistical analyses were performed using two-way ANOVA followed Bonferroni post-hoc test. *p<0.05; **p<0.01, ***p<0.001.

Row | Compound | direct vasorelaxant action (dose-response)
1 | NCCCC[C@H](N)C(=O)O [L-Lysine] | did not evoke any vasorelaxant effect

Same assay, conditions: single anthocyanins 1 - 100 µg/mL, dose-response curves

Row | Compound | vasorelaxation reached
2 | OC[C@H]1O[C@@H](Oc2cc3c(O)cc(O)cc3[o+]c2-c2cc(O)c(O)c(O)c2)[C@H](O)[C@@H](O)[C@H]1O [DP3-gal, Delphinidin-3-galactoside] | about 32,5%
3 | C[C@@H]1O[C@@H](OC[C@H]2O[C@@H](Oc3cc4c(O)cc(O)cc4[o+]c3-c3ccc(O)c(O)c3)[C@H](O)[C@@H](O)[C@@H]2O)[C@H](O)[C@H](O)[C@H]1O [C3-rut, Cyanidin-3-rutinoside] | ~36,5%

Same assay, conditions: single anthocyanins 1 - 100 µg/mL, phenylephrine-precontracted mice mesenteric arteries

Row | Compound | direct vascular action: dose-dependent vasorelaxation compared with Healthberry 865
4 | Peonidin-3-galactoside [PEO3-gal] | none of the single anthocyanins was able to evoke a dose-dependent vasorelaxation comparable to that observed after Healthberry 865® administration
5 | OC[C@H]1O[C@@H](Oc2cc3c(O)cc(O)cc3[o+]c2-c2ccc(O)c(O)c2)[C@H](O)[C@@H](O)[C@@H]1O [C3-glu, Cyanidin-3-glucoside] | none of the single anthocyanins was able to evoke a dose-dependent vasorelaxation comparable to that observed after Healthberry 865® administration
6 | Oc1cc(O)c2cc(O[C@H]3OC[C@H](O)[C@H](O)[C@H]3O)c(-c3cc(O)c(O)c(O)c3)[o+]c2c1 [DP3-ara, Delphinidin-3-arabinoside] | none of the single anthocyanins was able to evoke a dose-dependent vasorelaxation comparable to that observed after Healthberry 865® administration
7 | COc1cc(-c2[o+]c3cc(O)cc(O)c3cc2O[C@@H]2O[C@H](CO)[C@H](O)[C@H](O)[C@H]2O)cc(OC)c1O [MAL3-gal, Malvidin-3-galactoside] | none of the single anthocyanins was able to evoke a dose-dependent vasorelaxation comparable to that observed after Healthberry 865® administration
8 | COc1cc(-c2[o+]c3cc(O)cc(O)c3cc2O[C@@H]2O[C@H](CO)[C@@H](O)[C@H](O)[C@H]2O)cc(O)c1O [PT3-glu, Petunidin-3-glucoside] | none of the single anthocyanins was able to evoke a dose-dependent vasorelaxation comparable to that observed after Healthberry 865® administration
9 | COc1cc(-c2[o+]c3cc(O)cc(O)c3cc2O[C@@H]2O[C@H](CO)[C@@H](O)[C@H](O)[C@H]2O)cc(OC)c1O [MAL3-glu, Malvidin-3-glucoside] | none of the single anthocyanins was able to evoke a dose-dependent vasorelaxation comparable to that observed after Healthberry 865® administration
10 | OC[C@H]1O[C@@H](Oc2cc3c(O)cc(O)cc3[o+]c2-c2cc(O)c(O)c(O)c2)[C@H](O)[C@@H](O)[C@H]1O [DP3-gal, Delphinidin-3-galactoside] | none of the single anthocyanins was able to evoke a dose-dependent vasorelaxation comparable to that observed after Healthberry 865® administration
11 | C[C@@H]1O[C@@H](OC[C@H]2O[C@@H](Oc3cc4c(O)cc(O)cc4[o+]c3-c3ccc(O)c(O)c3)[C@H](O)[C@@H](O)[C@@H]2O)[C@H](O)[C@H](O)[C@H]1O [C3-rut, Cyanidin-3-rutinoside] | none of the single anthocyanins was able to evoke a dose-dependent vasorelaxation comparable to that observed after Healthberry 865® administration
12 | OC[C@H]1O[C@@H](Oc2cc3c(O)cc(O)cc3[o+]c2-c2ccc(O)c(O)c2)[C@H](O)[C@@H](O)[C@H]1O [C3-gal, Cyanidin-3-galactoside] | able to reproduce the direct vasorelaxant effect of Healthberry 865®
13 | OC[C@H]1O[C@@H](Oc2cc3c(O)cc(O)cc3[o+]c2-c2cc(O)c(O)c(O)c2)[C@H](O)[C@@H](O)[C@@H]1O [DP3-glu, Delphinidin-3-glucoside] | none of the single anthocyanins was able to evoke a dose-dependent vasorelaxation comparable to that observed after Healthberry 865® administration
